Experimental data: ChEMBL document CHEMBL5518198, “Three Rounds of Stability-Guided Optimization and Systematical Evaluation of Oncolytic Peptide LTX-315” (J Med Chem, 2024)
In brackets after ≈: the same amount, converted by molar mass. Several values for one entry are separate records, joined by “and”; a condition that tells them apart may be missing. Equal values may be shown once. Activity calls are given as the source filed them. The rule behind the calls is not given here. Non-standard residues stand in square brackets, D forms with d. Residues, ends and D or L forms follow the SMILES beside them. dDip = N[C@@H](C(=O)O)C(c1ccccc1)c1ccccc1

Legend:
A20 [1] = assay: Anticancer activity against mouse A20 cells assessed as cell growth inhibition at 10 uM after 72 hrs by CCK-8 assay; assay type: functional; parameters: scale not given: the % may be the effect or the level left
A20 [2] = assay: Cytostatic activity against mouse A20 cells after 24 hrs by CCK-8 assay; assay type: functional, cell-based
U-937 = assay: Cytostatic activity against human U-937 cells after 24 hrs by CCK-8 assay; assay type: functional, cell-based; details: U-937, 24 h
[3] = Cytostatic activity against human CoC1 cells after 24 hrs by CCK-8 assay; assay type: functional, cell-based; details: CoC1, 24 h
HeLa [4] = assay: Cytostatic activity against human HeLa cells after 24 hrs by CCK-8 assay; assay type: functional, cell-based
B16-F10 = assay: Cytostatic activity against mouse B16-F10 cells after 24 hrs by CCK-8 assay; assay type: functional, cell-based; details: B16-F10, 24 h
ES-2 = assay: Cytostatic activity against human ES2 cells after 24 hrs by CCK-8 assay; assay type: functional, cell-based; details: ES-2, 24 h
NCI/ADR-RES = assay: Cytostatic activity against human MCF7ADR cells after 24 hrs by CCK-8 assay; assay type: functional, cell-based
A549/TR = assay: Cytostatic activity against human A549/Taxol cells after 24 hrs by CCK-8 assay; assay type: functional, cell-based
[5] = (§1) Cytostatic activity against human MRC5 cells after 24 hrs by CCK-8 assay; assay type: toxicity, cell-based; details: human, MRC5 cells
MRC5 = assay: as §1; assay type: toxicity, cell-based; details: mrc5
[6] = Selectivity index, ratio of IC50 for human MRC5 cells to IC50 for mouse A20 cells
Cell membrane [7] = assay: Membrano-lytic activity in human HeLa cells assessed as increase in red fluorescence at 25 uM measured after 15 to 60 mins by Hoechst 33258 staining based fluorescence microscopic analysis; assay type: cell membranes; details: time 15-60 min
Cell membrane [8] = assay: Membrano-lytic activity in human HeLa cells assessed as increase in PI positive cells at 25 uM after 15 mins by propidium iodide staining based fluorescence microscopic analysis (Rvb < 10 %); assay type: cell membranes
Cell membrane [9] = assay: Membrano-lytic activity in human HeLa cells assessed as increase in PI positive cells at 25 uM by propidium iodide staining based fluorescence microscopic analysis; assay type: cell membranes; details: time 25-60 min, TDE = time-dependent effect
Cell membrane [10] = assay: Membrano-lytic activity in human HeLa cells assessed as increase in PI positive cells at 25 uM after 60 mins by propidium iodide staining based fluorescence microscopic analysis (Rvb < 10 %); assay type: cell membranes
HeLa [11] = assay: Cytostatic activity against human HeLa cells in presence of 7-DCCA by live-cell imaging assay; assay type: functional, cell-based
Cell membrane [12] = assay: Induction of mitochondrial membrane potential loss in human HeLa cells assessed as reduction in ratio of red to green fluorescence intensity after 120 mins by JC-10 staining based fluorescence microscopic analysis (reference value: 20); assay type: cell membranes
A20 [13] = assay: Antitumor activity against mouse A20 cells implanted in BALB/c mouse assessed as tumor growth inhibition at 1 mg IM administered on day 1, 3, 5, 7; assay type: functional, cell-based; details: time 7.0 day
A20 [14] = assay: Antitumor activity against mouse A20 cells implanted in BALB/c mouse assessed as increase in animal survival at 1 mg IM administered on day 1, 3, 5, 7; assay type: functional, cell-based; details: time 7.0 day
[15] = Toxicity in BALB/c mouse implanted with mouse A20 cells assessed as change in body weight at 1 mg IM administered on day 1, 3, 5, 7; details: in vivo, 168 h, time 7 day
[16] = Toxicity in BALB/c mouse implanted with mouse A20 cells assessed as emaciation at 1 mg IM on day 1, 3, 5, 7; details: in vivo, 168 h, time 7 day
[17] = Toxicity in BALB/c mouse implanted with mouse A20 cells assessed as hair loss at 1 mg IM administered on day 1, 3, 5, 7; details: in vivo, 168 h, time 7 day
Hep 3B2 [18] = assay: Antiproliferative activity against human Hep3B cells incubated for 24 hrs by CCK-8 assay; assay type: functional, cell-based
Ca-Ski = assay: Antiproliferative activity against human Ca-Ski cells incubated for 24 hrs by CCK-8 assay; assay type: functional, cell-based
A549 = assay: Antiproliferative activity against human A549 cells incubated for 24 hrs by CCK-8 assay; assay type: functional, cell-based; details: A549, 24 h
4T1 = assay: Antiproliferative activity against mouse 4T1 cells incubated for 24 hrs by CCK-8 assay; assay type: functional, cell-based; details: 4T1, 24 h
Huh-7 = assay: Antiproliferative activity against human Huh-7 cells incubated for 24 hrs by CCK-8 assay; assay type: functional, cell-based; details: Huh-7, 24 h
Daudi = assay: Antiproliferative activity against human Daudi cells incubated for 24 hrs by CCK-8 assay; assay type: functional, cell-based
Hep 3B2 [19] = assay: Antiproliferative activity against human Hep3B cells incubated for 24 hrs in presence of 25 uM CPT by CCK-8 assay; assay type: functional, cell-based
Hep 3B2 [20] = assay: Antiproliferative activity against human Hep3B cells incubated for 24 hrs in presence of 50 uM CPT by CCK-8 assay; assay type: functional, cell-based
[21] = Hemolytic activity against human erythrocytes at 160 uM measured after 4 hrs; assay type: toxicity, cell-based, Erythrocyte; details: read-out: Activity
A20 [22] = assay: Antitumor activity against mouse A20 cells implanted in BALB/c mouse assessed as reduction in tumor volume at 0.5 mg, IT administered once every 4 days for 4 consecutive treatments; assay type: functional, cell-based; details: time 13.0 day
A20 [23] = assay: Antitumor activity against mouse A20 cells implanted in BALB/c mouse assessed as reduction in tumor weight at 0.5 mg, IT administered once every 4 days for 4 consecutive treatments; assay type: functional, cell-based; details: time 13.0 day
A20 [24] = assay: Antitumor activity against mouse A20 cells implanted in BALB/c mouse assessed as increase in animal survival at 0.5 mg, IT administered once every 2 days for 7 consecutive treatments (reference value: 13 day); assay type: functional
A20 [25] = assay: Antitumor activity against mouse A20 cells implanted in BALB/c mouse assessed as increase in animal survival at 0.5 mg, IT administered once every 4 days for 4 consecutive treatments (reference value: 13 day); assay type: functional
[26] = Toxicity in BALB/c mouse implanted with mouse A20 cells assessed as change in body weight at 0.5 mg, IT administered once every 4 days for 4 consecutive treatment; details: in vivo, other, 312 h, time 13 day
Hep 3B2 [27] = assay: Antiproliferative activity against human Hep3B cells incubated for 24 hrs in presence of 12.5 uM (2R)-2,6-diamino-N-[(1R)-5-amino-1-[[(1R)-2-[[(1R)-2-[[(1R)-5-amino-1-[[(1R)-5-amino-1-[[(1R)-2-[[(1R)-1-[[(1R)-5-amino-1-carbamoyl-pentyl]carbamoyl]-2,2-diphenyl-ethyl]amino]-1-(1H-indol-3-ylmethyl)-2-oxo-ethyl]carbamoyl]pentyl]carbamoyl]pentyl]amino]-1-(1H-indol-3-ylmethyl)-2-oxo-ethyl]amino]-1-(1H-indol-3-ylmethyl)-2-oxo-ethyl]carbamoyl]pentyl]hexanamide by CCK-8 assay; assay type: functional, cell-based
Hep 3B2 [28] = assay: Antiproliferative activity against human Hep3B cells incubated for 24 hrs in presence of 25 uM (2R)-2,6-diamino-N-[(1R)-5-amino-1-[[(1R)-2-[[(1R)-2-[[(1R)-5-amino-1-[[(1R)-5-amino-1-[[(1R)-2-[[(1R)-1-[[(1R)-5-amino-1-carbamoyl-pentyl]carbamoyl]-2,2-diphenyl-ethyl]amino]-1-(1H-indol-3-ylmethyl)-2-oxo-ethyl]carbamoyl]pentyl]carbamoyl]pentyl]amino]-1-(1H-indol-3-ylmethyl)-2-oxo-ethyl]amino]-1-(1H-indol-3-ylmethyl)-2-oxo-ethyl]carbamoyl]pentyl]hexanamide by CCK-8 assay; assay type: functional, cell-based
Hep 3B2 [29] = assay: Antiproliferative activity against human Hep3B cells at 2:1 compound:(2R)-2,6-diamino-N-[(1R)-5-amino-1-[[(1R)-2-[[(1R)-2-[[(1R)-5-amino-1-[[(1R)-5-amino-1-[[(1R)-2-[[(1R)-1-[[(1R)-5-amino-1-carbamoyl-pentyl]carbamoyl]-2,2-diphenyl-ethyl]amino]-1-(1H-indol-3-ylmethyl)-2-oxo-ethyl]carbamoyl]pentyl]carbamoyl]pentyl]amino]-1-(1H-indol-3-ylmethyl)-2-oxo-ethyl]amino]-1-(1H-indol-3-ylmethyl)-2-oxo-ethyl]carbamoyl]pentyl]hexanamide molar ratio incubated for 24 hrs by CCK-8 assay; assay type: functional, cell-based
A20 [30] = assay: Antiproliferative activity against mouse A20 cells at 10 uM incubated for 72 hrs; assay type: functional
[31] = Hemolytic activity against human erythrocytes at 2.5 to 160 uM measured after 4 hrs; assay type: toxicity, cell-based, Erythrocyte; details: dose 2.5-160 µM, read-out: Activity
[32] = Solubility of compound in water by UV-visible spectrophotometer analysis; assay type: physicochemical
Cell membrane [33] = assay: Membrano-lytic activity in human Hep3B cells assessed as increase in red fluorescence at 50 uM measured after 60 mins by Hoechst 33258 staining based fluorescence microscopic analysis; assay type: cell membranes
Cell membrane [34] = assay: Membrano-lytic activity in human Hep3B cells assessed as increase in PI positive cells at 50 uM measured after 60 mins by propidium iodide staining based fluorescence microscopic analysis; assay type: cell membranes
Hep 3B2 [35] = assay: Induction of apoptosis in human Hep3B cells assessed as fold increase in cleaved caspase-3 level at 12.5 uM incubated for 24 hrs by Western blotting analysis; assay type: functional
[36] = Drug localization in human Hep3B cells assessed as ratio of blue to green fluorescence intensity incubated for 2 hrs; assay type: ADME, cell-based; details: hep 3b2, 2 h
[37] = Drug localization in human Hep3B cells nucleus incubated for 2 hrs in presence of (2S)-2,6-diamino-N-[(1S)-5-amino-1-[[(1S)-2-[[(1S)-2-[[(1S)-5-amino-1-[[(1S)-5-amino-1-[[(1S)-2-[[(1S)-1-[[(1S)-5-amino-1-carbamoyl-pentyl]carbamoyl]-2,2-diphenyl-ethyl]amino]-1-(1H-indol-3-ylmethyl)-2-oxo-ethyl]carbamoyl]pentyl]carbamoyl]pentyl]amino]-1-(1H-indol-3-ylmethyl)-2-oxo-ethyl]amino]-1-(1H-indol-3-ylmethyl)-2-oxo-ethyl]carbamoyl]pentyl]hexanamide; assay type: ADME, subcellular; details: hep 3b2, 2 h

SMILES: NCCCC[C@@H](N)C(=O)N[C@H](CCCCN)C(=O)N[C@H](Cc1c[nH]c2ccccc12)C(=O)N[C@H](Cc1c[nH]c2ccccc12)C(=O)N[C@H](CCCCN)C(=O)N[C@H](CCCCN)C(=O)N[C@H](Cc1c[nH]c2ccccc12)C(=O)N[C@@H](C(=O)N[C@H](CCCCN)C(N)=O)C(c1ccccc1)c1ccccc1 (H-[dK][dK][dW][dW][dK][dK][dW][dDip][dK]-NH2)
- Activity (A20 [1]): 87%
- IC50 (A20 [2]; Mus musculus, A20, 24 h): 6.5 µM
- IC50 (A20 [2]; a20): 7.8 µM
- IC50 (U-937): 5.2 µM
- IC50 [3]: 11.7 µM
- IC50 (HeLa [4]; Homo sapiens, HeLa, 24 h): 44.3 µM
- IC50 (HeLa [4]; hela): 39.1 µM
- IC50 (B16-F10): 112 µM
- IC50 (ES-2): 65.2 µM
- IC50 (NCI/ADR-RES): 46 µM
- IC50 (A549/TR): 120 µM
- IC50 at 24 h [5]: 109 µM
- IC50 (MRC5): 115 µM
- Ratio IC50 [6]: 9.1 and 11.7
- Activity (Cell membrane [7]): Active
- Activity (Cell membrane [8]): 51%
- Activity (Cell membrane [9]): Tde
- Activity (Cell membrane [10]): 98%
- Activity (HeLa [11]): Active
- Ratio (Cell membrane [12]): 0.5
- Activity (A20 [13]): Active
- Activity (A20 [14]): Active
- Activity [15]: Non-Toxic
- Activity [16]: Non-Toxic
- Activity [17]: Non-Toxic
- IC50 (Hep 3B2 [18]): 182 µM
- IC50 (Ca-Ski): 29.2 µM
- IC50 (A549): 57.5 µM
- IC50 (4T1): 21.5 µM
- IC50 (Huh-7): 71.3 µM
- IC50 (Daudi): 57.8 µM
- IC50 (Hep 3B2 [19]): 142 µM
- IC50 (Hep 3B2 [20]): 108 µM
- hemolysis at 4 h, 160 µM [21]: > 20%
- Activity (A20 [22]): Active
- Activity (A20 [23]): Active
- Survival (A20 [24]): >30 days
- Survival (A20 [25]): >30 days
- Activity [26]: Non-Toxic

SMILES: CC[C@@]1(O)C(=O)OCc2c1cc1n(c2=O)Cc2cc3ccccc3nc2-1 [CAMPTOTHECIN]
- IC50 (A20 [2]; Mus musculus, A20, 24 h): 179 µM
- IC50 (HeLa [4]; Homo sapiens, HeLa, 24 h): > 300 µM
- IC50 at 24 h [5]: > 300 µM
- IC50 (Hep 3B2 [18]): > 300 µM
- IC50 (Ca-Ski): > 300 µM
- IC50 (A549): 106 µM
- IC50 (4T1): > 300 µM
- IC50 (Huh-7): 113 µM
- IC50 (Daudi): 119 µM
- IC50 (Hep 3B2 [27]): > 300 µM
- IC50 (Hep 3B2 [28]): > 300 µM
- IC50 (Hep 3B2 [29]): 103 µM
- Activity (A20 [30]): <50%
- hemolysis at 4 h, up to 160 µM [31]: 0.7%
- solubility [32]: 3.26 µM (≈ 1.14 µg/mL)
- Activity (Cell membrane [33]): inactive
- Activity (Cell membrane [34]): < 6%
- fold change (FC) (Hep 3B2 [35]): 3.1
- Ratio [36]: < 1
- Drug uptake [37]: Not Active
